Legend:
Mouse T cells [1] = assay: cellular and mitochondrial ROS by FACS; type: cell-based; conditions: 10 days, 0.5 μM
Protocol: Mouse T cells were stimulated and expanded for 10 days in vitro in the presence of 0.5 μM p38 inhibitor. Cellular and mitochondrial ROS levels were measured using FACS analysis.

[2] = tested on: human healthy donor derived T cells and melanoma patient-derived T cells; assay: human T cells expanded 20-25 days with p38i: CD8+CD62L+ cells; type: cell-based; conditions: 0.5 uM p38i, vs vehicle
Protocol: The numbers of human healthy donor derived T cells and melanoma patient-derived T cells were expanded for 20-25 days in presence of 0.5 uM […]. The percentage of CD8+CD62L+ cells was measured.

Subcutaneous tumor = assay: adoptive cell transfer of Pmel-1 T cells expanded ex vivo with p38 inhibitor into tumor-bearing mice; type: in vivo; conditions: mice receiving Pmel-1 T cells expanded ex vivo 10 days with p38 inhibitor
Protocol: Subcutaneous tumor growth was measured in mice receiving adoptive cell transfer of Pmel-1 T cells which were expanded ex vivo for 10 days in the presence of p38 inhibitor. Tumor area (FIG. 10G) and overall survival (FIG. 10H) are shown. Significance for tumor growth kinetics were calculated by Wilcoxon rank-sum test. Survival significance was assessed by a log-rank Mantel-Cox test (n=5 mice per treatment group).

Mouse T cells [3] = assay: metabolome analysis; type: cell-based; conditions: 5 days, 0.5 μM, vs vehicle
Protocol: Mouse T cells were stimulated and the numbers of cells were expanded for 5 days in vitro in the presence of 0.5 μM p38 inhibitor. […] FIG. 7B is a schematic illustrating glycolysis and the citric acid cycle.

Mouse T cells [4] = assay: RNA extraction and qPCR gene expression; type: cell-based; conditions: 5 days, 0.5 μM, qPCR
Protocol: Mouse T cells were stimulated and expanded for 5 days in vitro in the presence of 0.5 μM p38 inhibitor. RNA extraction and qPCR analysis were performed to determine differences in gene expression.

Mouse T cells [5] = assay: intracellular staining and FACS of phosphorylation of Akt and its substrates; type: cell-based; conditions: 5 days, 0.5 μM
Protocol: Mouse T cells were stimulated and the numbers of cells were expanded for 5 days in vitro in presence of 0.5 μM p38 inhibitor. Intracellular staining and FACS analysis was performed to measure phosphorylation of Akt and its substrates in T cells.

Mouse T cells [6] = assay: cytokine production after brief anti-CD3/anti-CD28 stimulation; type: cell-based; conditions: 10 days, 0.5 μM
Protocol: Mouse T cells were stimulated and expanded for 10 days in vitro in the presence of 0.5 μM p38 inhibitor. Cells were briefly stimulated with anti-CD3/anti-CD28 in the presence of GOLGI-STOP protein transport inhibitor and GOLGI-PLUG protein transport inhibitor to determine the cytokine production ability of cells. As shown in FIGS. 10A-10C, IFN-gamma and IL-2 production increased following […] treatment. TNF alpha production decreased following […] treatment.

Mouse T cells [7] = assay: cell proliferation by dilution of CSFE proliferation dye; type: cell-based; conditions: hgp100 peptide or anti-CD3/CD28 stimulation, 4 days, 0.5 μM
Protocol: Mouse T cells were stimulated using either hgp100 peptide or anti-CD3/CD28 antibodies, and the numbers of cells were expanded for 4 days in vitro in the presence of 0.5 μM p38 inhibitor. Cell proliferation was measured.

[8] = tested on: CD19 antigen expressing NALM6 cells; assay: specific cytolysis by anti-CD19 CAR human T cells expanded with p38i; type: cell-based; conditions: anti-CD19 CAR T cells from 2 healthy donors, expanded 20-25 days, overnight coculture with NALM6
Protocol: Human T cells from 2 healthy donors were transduced with a retrovirus encoding an anti-CD19 CAR and the numbers of cells were expanded for 20-25 days in the presence of […]. Specific cytolysis was measured. […] T cells and NALM6 cells were cocultured overnight.

Human T cells = assay: IFN-gamma production by human T cells expanded with p38i; type: cell-based; conditions: human T cells expanded 20-25 days
From the text: Human T cells were expanded for 20-25 days in the presence of […].

Mouse T cells [9] = assay: apoptosis during expansion by Annexin; type: cell-based; conditions: 4 days, 0.5 μM
Protocol: Mouse T cells were stimulated and the numbers of cells were expanded for 4 days in vitro in the presence of 0.5 μM p38 inhibitor. The levels of cells which underwent apoptosis were measured.

Mouse T cells [10] = assay: mouse T cells stimulated and expanded 5 days with Birb796: gamma H2AX, cell counts, CD44/CD62L; type: cell-based; conditions: mouse T cells expanded 5 days in vitro; with increases in the dosage of p38i
Protocol: Mouse T cells were stimulated and the numbers of cells were expanded for 5 days in vitro in the presence of the p38 inhibitor Birb796. The percentages of cells with high levels of gamma H2AX, the percentages of cell counts, and the expression of CD44 and CD62L were measured. As shown in FIGS. 4C-4F, with increases in the dosage of p38 inhibitor […]), the DNA damage in cells was reduced and the cell counts and percentage of CD62L+ cells were increased.

Mouse T cells [11] = assay: SEAHORSE analysis of respiratory capacity; type: cell-based; conditions: 5 days, 0.5 μM
Protocol: Mouse T cells were stimulated and expanded for 5 days in vitro in the presence of 0.5 μM p38 inhibitor. SEAHORSE analysis was performed to determine spare respiratory capacity of cells.

Cc1ccc(-n2nc(C(C)(C)C)cc2NC(=O)Nc2ccc(OCCN3CCOCC3)c3ccccc23)cc1 [BIRB 796, doramapimod]
mitochondrial ROS (Mouse T cells [1]): reduced | total ROS (Mouse T cells [1]): reduced | percentage of CD8+CD62L+ cells ([2]; healthy donor T cells): increased | percentage of CD8+CD62L+ cells ([2]; melanoma patient T cells): increased | overall survival (Subcutaneous tumor): promote survival | tumor area (Subcutaneous tumor): enhanced the ability of the transferred cells to reduce tumor area | alpha-ketoglutarate production (Mouse T cells [3]): reduced | glucose production (Mouse T cells [3]): reduced | lactate production (Mouse T cells [3]): reduced | production of 9-HODE/13-HODE (Mouse T cells [3]): reduced | production of linoleate (18:2n6) (Mouse T cells [3]): reduced | production of oxidized GSSG (Mouse T cells [3]): reduced | succinate production (Mouse T cells [3]): reduced | mRNA expression of Slc2a1 (Mouse T cells [4]): reduced | mRNA expression of catalase (Mouse T cells [4]): reduced | phosphorylation of Akt and its substrates (Mouse T cells [5]): preserved memory-like characteristics of T cells independent of the Akt pathway | IFN-gamma production (Mouse T cells [6]): increased | IL-2 production (Mouse T cells [6]): increased | TNF alpha production (Mouse T cells [6]): decreased | cell proliferation (dilution of CSFE proliferation dye) (Mouse T cells [7]): did not affect cell proliferation | specific cytolysis [8]: lysed in higher numbers | ability to produce the effector cytokine IFN-gamma (Human T cells): enhanced ability | cell death during expansion (apoptotic cell marker Annexin) (Mouse T cells [9]): reduced cell death | DNA damage in cells (percentage of cells with high levels of gamma H2AX) (Mouse T cells [10]): reduced | cell counts (Mouse T cells [10]): increased | percentage of CD62L+ cells (Mouse T cells [10]): increased | total oxygen consumption (Mouse T cells [11]): increased
